This note sets out measurements from patent US8748417B2, “Amino-pyrrolidine-azetidine diamides as monoacylglycerol lipase inhibitors” (Janssen Pharmaceutica, NV, priority 2010, dated 2014).

One may read the IC50 as the concentration that gives 50% inhibition.

The target of assay [1] is T1, purified wild type MGL (wt-MGLL 6H-11-313) (Homo sapiens, UniProt Q99685).
T1 construct: purified wild type MGL (wt-MGLL 6H-11-313)
T1 sequence (Q99685 1-303): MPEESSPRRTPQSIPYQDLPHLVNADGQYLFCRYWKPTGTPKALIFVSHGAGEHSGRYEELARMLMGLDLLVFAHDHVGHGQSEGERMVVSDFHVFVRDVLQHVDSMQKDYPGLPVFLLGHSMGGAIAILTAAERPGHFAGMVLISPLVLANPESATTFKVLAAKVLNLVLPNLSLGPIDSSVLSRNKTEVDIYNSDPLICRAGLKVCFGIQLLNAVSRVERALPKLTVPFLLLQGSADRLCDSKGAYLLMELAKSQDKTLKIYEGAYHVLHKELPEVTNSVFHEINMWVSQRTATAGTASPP
The assay can be described thus: MGL enzyme activity assay (4MU-B cleavage), wild type MGL. Format: biochemical. The settings on record: wild type MGL 5 nM, 4MU-B 10 μM, 37° C.; read-out: MGL wild type inh IC50. In a few lines: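 Enzyme in 20 mM PIPES pH 7.0, 150 mM NaCl, 0.001% Tween 20 with 4MU-B at 10 μM final and MGL at 5 nM final; compounds 17 to 0.0003 μM final, enzyme added last. Fluorescence (ex 335/em 440 nm) followed at 37° C for 5 min; IC50 from fit of fractional activity versus inhibitor concentration.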

Assay [2] has as its system MGL (rat brain homogenate). The assay can be described thus: 2-AG accumulation assay in rat brain homogenate. Format: biochemical. The following applies: compound 1 μM, percent of vehicle 2-AG accumulation. In a few lines: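 Rat brain homogenate was incubated with compound for 15 min at 37° C., after which CaCl2 was added to a final concentration of 10 mM and incubation continued for 15 min at 37° C. in 5 mL total. Reactions were stopped with 6 mL of 2:1 chloroform/methanol, and 2-AG accumulated in the organic phase was quantified by HPLC/MS.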

In the case of `O=C(c1ccc(Cc2ccc(C(F)(F)F)cc2)cc1)N1CC(N[C@H]2CCN(C(=O)c3cscn3)C2)C1` [Cpd 144, (3S)-1-(1,3-Thiazol-4-ylcarbonyl)-N-[1-({4-[4-(trifluoromethyl)benzyl]phenyl}carbonyl)azetidin-3-yl]pyrrolidin-3-amine], the IC50 in assay [1] is less than 5 nM. The “Rat Brain 2AG % VehCntrl (%) @1 μM” value in assay [2] is given as 992%.

As for `O=C(c1ccccc1)N1CC[C@H](NC2CN(C(=O)c3cc4cc(-c5ccc(Cl)s5)ccc4o3)C2)C1` [Cpd 122, (3S)-N-(1-{[5-(5-Chlorothiophen-2-yl)-1-benzofuran-2-yl]carbonyl}azetidin-3-yl)-1-(phenylcarbonyl)pyrrolidin-3-amine], the IC50 in assay [1] was 59.7 nM. In addition, the “Rat Brain 2AG % VehCntrl (%) @1 μM” value in assay [2] stood at 152%.

With `O=C(c1ccc2c(ccn2-c2ccc(C(F)(F)F)cc2)c1)N1CC(N[C@H]2CCN(C(=O)c3ccccc3)C2)C1` [Cpd 154, (3S)-1-(Phenylcarbonyl)-N-[1-({1-[4-(trifluoromethyl)phenyl]-1H-indol-5-yl}carbonyl)azetidin-3-yl]pyrrolidin-3-amine], in assay [1], the IC50 came out at 13.4 nM. Also, the “Rat Brain 2AG % VehCntrl (%) @1 μM” value in assay [2] was 582%.

For the molecule `O=C(c1ccc(-c2ccc(C(F)(F)F)cc2)cc1)N1CC(N[C@H]2CCN(C(=O)c3nccs3)C2)C1` [Cpd 115, (3S)-1-(1,3-Thiazol-2-ylcarbonyl)-N-(1-{[4′-(trifluoromethyl)biphenyl-4-yl]carbonyl}azetidin-3-yl)pyrrolidin-3-amine], the IC50 in assay [1] was found to be 10 nM. Also, in assay [2], the “Rat Brain 2AG % VehCntrl (%) @1 μM” value was determined as 310%.

As to `Cc1c(C(=O)N2CC(N[C@H]3CCN(C(=O)c4nccs4)C3)C2)sc2ccc(-c3ccccc3)cc12` [Cpd 92, (3S)-N-{1-[(3-Methyl-5-phenyl-1-benzothiophen-2-yl)carbonyl]azetidin-3-yl}-1-(1,3-thiazol-2-ylcarbonyl)pyrrolidin-3-amine], in assay [1], the IC50 was less than 5 nM. Moreover, the “Rat Brain 2AG % VehCntrl (%) @1 μM” value in assay [2] is 624%.

On to `Cc1cc(-c2cccc(C(F)(F)F)c2)ccc1C(=O)N1CC(N[C@H]2CCN(C(=O)c3nccs3)C2)C1` [Cpd 117, (3S)-N-(1-{[3-Methyl-3′-(trifluoromethyl)biphenyl-4-yl]carbonyl}azetidin-3-yl)-1-(1,3-thiazol-2-ylcarbonyl)pyrrolidin-3-amine], for which the IC50 in assay [1] was less than 5 nM. Besides, in assay [2], the “Rat Brain 2AG % VehCntrl (%) @1 μM” value turned out to be 400%.

For the molecule `O=C(c1nccs1)N1CC[C@H](NC2CN(C(=O)c3sc4cc(-c5ccccc5)ccc4c3Cl)C2)C1` [Cpd 146, (3S)-N-{1-[(3-Chloro-6-phenyl-1-benzothiophen-2-yl)carbonyl]azetidin-3-yl}-1-(1,3-thiazol-2-ylcarbonyl)pyrrolidin-3-amine], the IC50 in assay [1] was less than 5 nM. Also, the “Rat Brain 2AG % VehCntrl (%) @1 μM” value in assay [2] turned out to be 680%.

With `O=C(c1cscn1)N1CC[C@H](NC2CN(C(=O)c3sc4cc(-c5cccc(C(F)(F)F)c5)ccc4c3Cl)C2)C1` [Cpd 149, (3S)-N-[1-({3-Chloro-6-[3-(trifluoromethyl)phenyl]-1-benzothiophen-2-yl}carbonyl)azetidin-3-yl]-1-(1,3-thiazol-4-ylcarbonyl)pyrrolidin-3-amine], the IC50 in assay [1] is less than 5 nM. In addition, the “Rat Brain 2AG % VehCntrl (%) @1 μM” value in assay [2] turned out to be 811%.

Consider `O=C(c1nccs1)N1CC[C@H](NC2CN(C(=O)c3sc4ccc(-c5ccccc5)cc4c3F)C2)C1` [Cpd 171, (3S)-N-{1-[(3-Fluoro-5-phenyl-1-benzothiophen-2-yl)carbonyl]azetidin-3-yl}-1-(1,3-thiazol-2-ylcarbonyl)pyrrolidin-3-amine], for which the IC50 in assay [1] is less than 5 nM. The “Rat Brain 2AG % VehCntrl (%) @1 μM” value in assay [2] is reported as 614%.

Consider `O=C(c1ccc(C(O)c2ccc(C(F)(F)F)cc2)cc1)N1CC(N[C@H]2CCN(C(=O)c3ccccc3)C2)C1` (some centres unmarked) [Cpd 67], for which the IC50 in assay [1] came out at 9.7 nM. For the same molecule, in assay [2], the “Rat Brain 2AG % VehCntrl (%) @1 μM” value was found to be 928%.
